The values below come from patent publication US9732075B2, “Benzimidazole-proline derivatives” (IDORSIA PHARMACEUTICALS LTD, priority 2012, dated 2017).

For one assay, the target named is human orexin-1 receptor (Homo sapiens (Human), UniProt O43613). Nature of the assay: In vitro assay: intracellular calcium measurements (FLIPR), antagonistic activity. It is filed as cell-based. The settings on record: CHO cells expressing human orexin-1 receptor, orexin-A agonist, geometric mean, read-out: IC50 Ox1. Put shortly: (§1)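 In this FLIPR calcium assay, antagonists were given 120 min on CHO cells with human OX1 or OX2 receptor before orexin-A (3 nM final) was added. Peak fluorescence was measured at 1 s intervals against the uninhibited agonist peak, and IC50s were averaged geometrically.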
Sequence of human orexin-1 receptor (O43613 whole entry): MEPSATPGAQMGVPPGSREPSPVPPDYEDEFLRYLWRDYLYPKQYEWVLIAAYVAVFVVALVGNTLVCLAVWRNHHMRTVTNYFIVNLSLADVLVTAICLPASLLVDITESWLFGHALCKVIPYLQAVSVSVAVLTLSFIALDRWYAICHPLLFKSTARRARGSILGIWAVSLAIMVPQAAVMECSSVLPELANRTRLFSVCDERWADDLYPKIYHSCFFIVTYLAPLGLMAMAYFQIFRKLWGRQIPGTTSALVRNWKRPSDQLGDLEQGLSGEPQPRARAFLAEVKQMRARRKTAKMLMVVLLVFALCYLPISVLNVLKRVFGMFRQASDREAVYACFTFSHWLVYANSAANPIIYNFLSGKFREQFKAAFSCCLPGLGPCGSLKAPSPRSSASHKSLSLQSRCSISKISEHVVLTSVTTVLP
Background: Calcium flux is commonly read through the fluorescence of an indicator in the cells.

For a further assay, the target named is human orexin-2 receptor (Homo sapiens (Human), UniProt O43614). Described as above. To be noted: CHO cells expressing human orexin-2 receptor, orexin-A agonist, geometric mean, read-out: IC50 Ox2. It is filed as cell-based. In a few lines: as §1
Sequence of human orexin-2 receptor (O43614 whole entry): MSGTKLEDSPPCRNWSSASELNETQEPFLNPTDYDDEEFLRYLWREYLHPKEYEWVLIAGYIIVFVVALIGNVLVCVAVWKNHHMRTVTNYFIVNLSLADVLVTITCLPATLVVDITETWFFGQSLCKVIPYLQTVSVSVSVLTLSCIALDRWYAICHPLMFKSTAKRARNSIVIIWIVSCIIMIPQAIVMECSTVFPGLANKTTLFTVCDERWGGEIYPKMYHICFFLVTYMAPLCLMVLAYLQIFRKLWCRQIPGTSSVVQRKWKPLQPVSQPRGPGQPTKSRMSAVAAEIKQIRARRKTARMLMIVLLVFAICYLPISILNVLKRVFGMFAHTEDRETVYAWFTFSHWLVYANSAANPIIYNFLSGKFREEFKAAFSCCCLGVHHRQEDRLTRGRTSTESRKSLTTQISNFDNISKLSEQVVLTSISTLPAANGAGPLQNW

What is called IC50 is the point on the concentration scale where inhibition reaches its midpoint.

Turning to `COc1cc2nc([C@@H]3[C@@H](C)CCN3C(=O)c3nc(C)sc3-c3ccc(C(F)(F)F)cc3)[nH]c2cc1OC` [Ex. 4.50], the IC50 at human orexin-1 receptor was found to be 373 nM; on human orexin-2 receptor, 4220 nM.

Turning to `COc1cc2nc([C@@H]3[C@@H](C)CCN3C(=O)c3sc(C)nc3-c3ccc(C)cc3)[nH]c2cc1OC` [Ex. 4.51], the half-inhibitory concentration (IC50) on human orexin-1 receptor amounted to 99 nM; at human orexin-2 receptor, 677 nM.

Take `COc1cc2nc([C@@H]3[C@@H](C)CCN3C(=O)c3nc(C)sc3-c3cc(F)cc(F)c3)[nH]c2cc1OC` [Ex. 4.52]: the IC50 on human orexin-1 receptor worked out at 19 nM; at human orexin-2 receptor, 1070 nM.

Turning to `COc1ccc(-c2sc(C)nc2C(=O)N2CC[C@H](C)[C@H]2c2nc3cc(OC)c(OC)cc3[nH]2)cn1` [Ex. 4.53], the IC50 at human orexin-1 receptor was found to be 111 nM; on human orexin-2 receptor, 4440 nM.

In the case of `COc1cc2nc([C@@H]3[C@@H](C)CCN3C(=O)c3nc(C)sc3-c3ccc(F)cc3)[nH]c2cc1OC` [Ex. 4.54], the IC50 at human orexin-1 receptor was found to be 21 nM; on human orexin-2 receptor, 2320 nM.

Take `COc1cc2nc([C@@H]3[C@@H](C)CCN3C(=O)c3ncsc3-c3cccc(Cl)c3)[nH]c2cc1OC` [Ex. 4.55]: the IC50 on human orexin-1 receptor came out at 167 nM; on human orexin-2 receptor, 7970 nM.

As to `COc1cc2nc([C@@H]3[C@@H](C)CCN3C(=O)c3ccccc3-n3cccn3)[nH]c2cc1OC` [Ex. 4.56], the IC50 came out at 283 nM at human orexin-1 receptor and 2620 nM on human orexin-2 receptor.

Turning to `COc1cc2nc([C@@H]3[C@@H](C)CCN3C(=O)c3cc(C)ccc3-n3cccn3)[nH]c2cc1OC` [Ex. 4.57], the IC50 on human orexin-1 receptor was found to be 59 nM; on human orexin-2 receptor, 250 nM.

Regarding `COc1cc2nc([C@@H]3[C@@H](C)CCN3C(=O)c3ccccc3-c3ccc(C)cc3)[nH]c2cc1OC` [Ex. 4.58], the IC50 on human orexin-1 receptor worked out at 66 nM; at human orexin-2 receptor it was 2170 nM.

`Cc1c(Cl)ccc2[nH]c([C@@H]3[C@@H](C)CCN3C(=O)c3ccccc3-n3nccn3)nc12` [Ex. 4.59]: the IC50 turned out to be 6 nM at human orexin-1 receptor and 67 nM at human orexin-2 receptor.

For the molecule `Cc1c(Cl)ccc2[nH]c([C@@H]3[C@@H](C)CCN3C(=O)c3cc(Cl)ccc3-n3nccn3)nc12` [Ex. 4.60], the IC50 at human orexin-1 receptor was found to be 2 nM; at human orexin-2 receptor, 65 nM.

For the molecule `Cc1ccc(-c2ccccc2C(=O)N2CC[C@H](C)[C@H]2c2nc3c(C)c(Cl)ccc3[nH]2)cc1` [Ex. 4.61], the IC50 on human orexin-1 receptor was 0.9 nM; at human orexin-2 receptor it was 72 nM.

As for `Cc1ccc(C(=O)N2CC[C@H](C)[C@H]2c2nc3c(C)c(Cl)ccc3[nH]2)c(-n2nccn2)c1` [Ex. 4.62], the results for the IC50 at human orexin-1 receptor and at human orexin-2 receptor were 3 nM and 19 nM, respectively.

Regarding `Cc1nc(C(=O)N2CC[C@H](C)[C@H]2c2nc3c(C)c(Cl)ccc3[nH]2)c(-c2ccc(Cl)cc2)s1` [Ex. 4.63], the IC50 came out at 0.8 nM at human orexin-1 receptor and 122 nM on human orexin-2 receptor.

Regarding `Cc1ccc(-n2cccn2)c(C(=O)N2CC[C@H](C)[C@H]2c2nc3c(C)c(Cl)ccc3[nH]2)c1` [Ex. 4.64], the IC50 on human orexin-1 receptor turned out to be 5 nM; at human orexin-2 receptor, 800 nM.

As for `Cc1ccc(-c2nc(C)sc2C(=O)N2CC[C@H](C)[C@H]2c2nc3c(C)c(Cl)ccc3[nH]2)cc1` [Ex. 4.65], the IC50 at human orexin-1 receptor amounted to 8 nM; on human orexin-2 receptor, 207 nM.

Regarding `COc1ccc(-n2nccn2)c(C(=O)N2CC[C@H](C)[C@H]2c2nc3c(C)c(Cl)ccc3[nH]2)c1` [Ex. 4.66], the IC50 was found to be 1 nM at human orexin-1 receptor and 23 nM at human orexin-2 receptor.

In the case of `Cc1nc(C(=O)N2CC[C@H](C)[C@H]2c2nc3c(C)c(Cl)ccc3[nH]2)c(-c2cc(F)cc(F)c2)s1` [Ex. 4.67], the IC50 at human orexin-1 receptor was 0.9 nM; on human orexin-2 receptor, 251 nM.

As to `COc1ccc(-c2sc(C)nc2C(=O)N2CC[C@H](C)[C@H]2c2nc3c(C)c(Cl)ccc3[nH]2)cn1` [Ex. 4.69], the IC50 on human orexin-1 receptor came out at 2 nM; at human orexin-2 receptor, 191 nM.

On to `Cc1nc(C(=O)N2CC[C@H](C)[C@H]2c2nc3c(C)c(Cl)ccc3[nH]2)c(-c2ccc(F)cc2)s1` [Ex. 4.70], for which the results for the IC50 on human orexin-1 receptor and on human orexin-2 receptor were 0.6 nM and 404 nM, respectively.

In the case of `Cc1cc2[nH]c([C@@H]3[C@@H](C)CCN3C(=O)c3cc(Cl)ccc3-n3nccn3)nc2cc1Cl` [Ex. 4.71], the IC50 was 7 nM at human orexin-1 receptor and 133 nM on human orexin-2 receptor.

Turning to `Cc1ccc(C(=O)N2CC[C@H](C)[C@H]2c2nc3cc(Cl)c(C)cc3[nH]2)c(-n2nccn2)c1` [Ex. 4.72], the IC50 at human orexin-1 receptor was determined as 4 nM; at human orexin-2 receptor, 51 nM.

With `Cc1ccc(-n2cccn2)c(C(=O)N2CC[C@H](C)[C@H]2c2nc3cc(Cl)c(C)cc3[nH]2)c1` [Ex. 4.73], the IC50 on human orexin-1 receptor came out at 17 nM; at human orexin-2 receptor it was 1290 nM.

Take `COc1ccc(-n2nccn2)c(C(=O)N2CC[C@H](C)[C@H]2c2nc3cc(Cl)c(C)cc3[nH]2)c1` [Ex. 4.74]: the IC50 at human orexin-1 receptor worked out at 4 nM; on human orexin-2 receptor it was 78 nM.

Regarding `Cc1cc2[nH]c([C@@H]3[C@@H](C)CCN3C(=O)c3c(-n4nccn4)ccc(C)c3F)nc2cc1Cl` [Ex. 4.75], the IC50 was 8 nM at human orexin-1 receptor and 636 nM at human orexin-2 receptor.

For the molecule `Cc1cc2[nH]c([C@@H]3[C@@H](C)CCN3C(=O)c3ccccc3-n3nccn3)nc2cc1Cl` [Ex. 4.76], the IC50 came to 8 nM on human orexin-1 receptor and 113 nM at human orexin-2 receptor.

With `Cc1ccc(-c2ccccc2C(=O)N2CC[C@H](C)[C@H]2c2nc3cc(Cl)c(C)cc3[nH]2)cc1` [Ex. 4.77], the IC50 turned out to be 5 nM at human orexin-1 receptor and 790 nM at human orexin-2 receptor.

As for `Cc1nc(C(=O)N2CC[C@H](C)[C@H]2c2nc3cc(Cl)c(C)cc3[nH]2)c(-c2ccc(Cl)cc2)s1` [Ex. 4.78], the IC50 at human orexin-1 receptor was 3 nM; at human orexin-2 receptor, 1630 nM.

Turning to `Cc1ccc(-c2nc(C)sc2C(=O)N2CC[C@H](C)[C@H]2c2nc3cc(Cl)c(C)cc3[nH]2)cc1` [Ex. 4.79], the IC50 at human orexin-1 receptor is 18 nM; on human orexin-2 receptor it was 541 nM.

Consider `Cc1nc(C(=O)N2CC[C@H](C)[C@H]2c2nc3cc(Cl)c(C)cc3[nH]2)c(-c2cc(F)cc(F)c2)s1` [Ex. 4.80], for which the IC50 on human orexin-1 receptor was found to be 3 nM; at human orexin-2 receptor it was 2020 nM.

`Cc1cc2nc([C@@H]3[C@@H](C)CCN3C(=O)c3cc(Cl)ccc3-n3nccn3)[nH]c2cc1C` [Ex. 4.81]: the IC50 on human orexin-1 receptor worked out at 4 nM; on human orexin-2 receptor it was 79 nM.

For `Cc1ccc(C(=O)N2CC[C@H](C)[C@H]2c2nc3cc(C)c(C)cc3[nH]2)c(-n2nccn2)c1` [Ex. 4.82], the IC50 at human orexin-1 receptor was determined as 4 nM; on human orexin-2 receptor, 32 nM.

Turning to `Cc1ccc(-n2cccn2)c(C(=O)N2CC[C@H](C)[C@H]2c2nc3cc(C)c(C)cc3[nH]2)c1` [Ex. 4.83], the values for the IC50 on human orexin-1 receptor and on human orexin-2 receptor were 159 nM and 2320 nM, respectively.

On to `COc1ccc(-n2nccn2)c(C(=O)N2CC[C@H](C)[C@H]2c2nc3cc(C)c(C)cc3[nH]2)c1` [Ex. 4.84], for which the concentration for half-maximal inhibition (IC50) on human orexin-1 receptor was 8 nM; on human orexin-2 receptor, 58 nM.

For the molecule `Cc1cc2nc([C@@H]3[C@@H](C)CCN3C(=O)c3ccccc3-n3nccn3)[nH]c2cc1C` [Ex. 4.85], the half-maximal inhibitory concentration (IC50) at human orexin-1 receptor was 7 nM; on human orexin-2 receptor it was 43 nM.

Consider `Cc1ccc(-c2ccccc2C(=O)N2CC[C@H](C)[C@H]2c2nc3cc(C)c(C)cc3[nH]2)cc1` [Ex. 4.86], for which the IC50 on human orexin-1 receptor stood at 7 nM; on human orexin-2 receptor it was 352 nM.

On to `Cc1nc(C(=O)N2CC[C@H](C)[C@H]2c2nc3cc(C)c(C)cc3[nH]2)c(-c2ccc(Cl)cc2)s1` [Ex. 4.87], for which the values for the IC50 at human orexin-1 receptor and at human orexin-2 receptor were 4 nM and 2080 nM, respectively.

For `Cc1ccc(-c2nc(C)sc2C(=O)N2CC[C@H](C)[C@H]2c2nc3cc(C)c(C)cc3[nH]2)cc1` [Ex. 4.88], the half-maximal inhibitory concentration (IC50) stood at 11 nM on human orexin-1 receptor and 182 nM at human orexin-2 receptor.

As to `Cc1nc(C(=O)N2CC[C@H](C)[C@H]2c2nc3cc(C)c(C)cc3[nH]2)c(-c2cc(F)cc(F)c2)s1` [Ex. 4.89], the IC50 at human orexin-1 receptor was 3 nM; at human orexin-2 receptor, 2170 nM.

`Cc1nc(C(=O)N2CC[C@H](C)[C@H]2c2nc3cc(C)c(C)cc3[nH]2)c(-c2ccc(F)cc2)s1` [Ex. 4.90]: the IC50 on human orexin-1 receptor came to 6 nM; at human orexin-2 receptor, 2350 nM.

As to `Cc1cc(Cl)cc2[nH]c([C@@H]3[C@@H](C)CCN3C(=O)c3cc(Cl)ccc3-n3nccn3)nc12` [Ex. 4.91], the IC50 at human orexin-1 receptor was determined as 17 nM; on human orexin-2 receptor it was 183 nM.

In the case of `Cc1ccc(-c2ccccc2C(=O)N2CC[C@H](C)[C@H]2c2nc3c(C)cc(Cl)cc3[nH]2)cc1` [Ex. 4.92], the IC50 worked out at 5 nM at human orexin-1 receptor and 212 nM at human orexin-2 receptor.

With `Cc1ccc(C(=O)N2CC[C@H](C)[C@H]2c2nc3c(C)cc(Cl)cc3[nH]2)c(-n2nccn2)c1` [Ex. 4.93], the IC50 on human orexin-1 receptor was 4 nM; at human orexin-2 receptor it was 74 nM.

In the case of `Cc1nc(C(=O)N2CC[C@H](C)[C@H]2c2nc3c(C)cc(Cl)cc3[nH]2)c(-c2ccc(Cl)cc2)s1` [Ex. 4.94], the IC50 came to 3 nM on human orexin-1 receptor and 543 nM on human orexin-2 receptor.

Regarding `Cc1ccc(-n2cccn2)c(C(=O)N2CC[C@H](C)[C@H]2c2nc3c(C)cc(Cl)cc3[nH]2)c1` [Ex. 4.95], the values for the half-maximal inhibitory concentration (IC50) at human orexin-1 receptor and at human orexin-2 receptor were 28 nM and 1170 nM, respectively.

`Cc1ccc(-c2nc(C)sc2C(=O)N2CC[C@H](C)[C@H]2c2nc3c(C)cc(Cl)cc3[nH]2)cc1` [Ex. 4.96]: the half-maximal inhibitory concentration (IC50) was 31 nM on human orexin-1 receptor and 996 nM on human orexin-2 receptor.

For `COc1ccc(-n2nccn2)c(C(=O)N2CC[C@H](C)[C@H]2c2nc3c(C)cc(Cl)cc3[nH]2)c1` [Ex. 4.97], the IC50 stood at 4 nM at human orexin-1 receptor and 129 nM on human orexin-2 receptor.

As to `Cc1nc(C(=O)N2CC[C@H](C)[C@H]2c2nc3c(C)cc(Cl)cc3[nH]2)c(-c2cc(F)cc(F)c2)s1` [Ex. 4.98], the IC50 came to 4 nM at human orexin-1 receptor and 1300 nM at human orexin-2 receptor.

Consider `Cc1ccc(-n2nccn2)c(C(=O)N2CC[C@H](C)[C@H]2c2nc3c(C)cc(Cl)cc3[nH]2)c1F` [Ex. 4.99], for which the IC50 on human orexin-1 receptor amounted to 13 nM; on human orexin-2 receptor, 981 nM.

`Cc1nc(C(=O)N2CC[C@H](C)[C@H]2c2nc3c(C)cc(Cl)cc3[nH]2)c(-c2ccc(F)cc2)s1` [Ex. 4.100]: the IC50 turned out to be 6 nM on human orexin-1 receptor and 1280 nM at human orexin-2 receptor.
